In patent publication US8124780B2, “Benzimidazole compound” (priority 2005, dated 2012) one finds inhibition in vivo data, which are given here for 13 compounds.

Each structure is given as a SMILES string. Where a name gives a salt, the structure may show the parent alone. Read-outs that look alike come from different tables or passages of the source.

The assay relates to gastric acid secretion. Briefly: animal or person. The assay is classed as in vivo, dog. To be noted: Canis lupus familiaris.
Setting [1] is: iv, 24 h, read-out: Persistency of inhibitory effect against gastric acid secretion (%).
Setting [2] is: iv, read-out: Inhibitory effect against gastric acid secretion (%).

Turning to `Cc1c(OCCC2COC(C)(C)O2)ccnc1C[S+]([O-])c1nc2ccccc2[nH]1` (centres unmarked) [Example 64, 2-(((4-(2-(2,2-dimethyl-1,3-dioxolan-4-yl)ethoxy)-3-methylpyridin-2-yl)methyl)sulfinyl)-1H-benzimidazole sodium salt], the inhibition in vivo at 0.8 mg/kg runs as follows: under setting [1], 78%; under setting [2], 100%.
Consider `CCC1(CC)OCC(COc2ccnc(C[S+]([O-])c3nc4ccccc4[nH]3)c2C)O1` (centres unmarked) [Example 65, 2-(((4-((2,2-diethyl-1,3-dioxolan-4-yl)methoxy)-3-methylpyridin-2-yl)methyl)sulfinyl)-1H-benzimidazole sodium salt], for which the inhibition in vivo at 1.6 mg/kg amounted to 91% under setting [1] and 100% under setting [2].
For the compound `Cc1c(OCC2OCCO2)ccnc1C[S+]([O-])c1nc2ccccc2[nH]1` (centres unmarked) [Example 66, 2-(((4-(1,3-dioxolan-2-ylmethoxy)-3-methylpyridin-2-yl)methyl)sulfinyl)-1H-benzimidazole sodium salt], the inhibition in vivo at 1.6 mg/kg by setting is: under setting [1], 79%; under setting [2], 100%.
As to `Cc1c(OCC2(C)OCCO2)ccnc1C[S+]([O-])c1nc2ccccc2[nH]1` (centres unmarked) [Example 67, 2-(((3-methyl-4-((2-methyl-1,3-dioxolan-2-yl)methoxy)pyridin-2-yl)methyl)sulfinyl)-1H-benzimidazole sodium salt], the inhibition in vivo at 1.6 mg/kg is, setting by setting: under setting [1], 83%; under setting [2], 100%.
The matching figures for `Cc1c(OCCC2(C)OCCO2)ccnc1C[S+]([O-])c1nc2ccccc2[nH]1` (centres unmarked) [Example 69, 2-(((3-methyl-4-(2-(2-methyl-1,3-dioxolan-2-yl)ethoxy)pyridin-2-yl)methyl)sulfinyl)-1H-benzimidazole sodium salt]: 78% and 100%.
`Cc1c(OCC2(C)OCCO2)ccnc1C[S+]([O-])c1nc2ccccc2[nH]1` (stereo not drawn) [Example 70, Sodium salt of an optical isomer of 2-(((3-methyl-4-((2-methyl-1,3-dioxolan-2-yl)methoxy)pyridin-2-yl)methyl)sulfinyl)-1H-benzimidazole]: the inhibition in vivo at 1.6 mg/kg reads like this: (i.d., 24 h, dose 1.6 mg/kg i.d., second day, 24 hours after administration, histamine i.v., read-out: Persistency of inhibitory effect against gastric acid secretion (%)) 77%; (i.d., dose 1.6 mg/kg i.d., first day, 1 h 40 min to 2 h after administration, histamine i.v., read-out: Inhibitory effect against gastric acid secretion (%)) 100%.
As to `Cc1c(OCCC2(C)OCC3(CO2)OCCO3)ccnc1C[S+]([O-])c1nc2ccccc2[nH]1` (centres unmarked) [Example 73, 2-(((3-methyl-4-(2-(8-methyl-1,4,7,9-tetraoxaspiro[4.5]dec-8-yl)ethoxy)pyridin-2-yl)methyl)sulfinyl)-1H-benzimidazole sodium salt], the inhibition in vivo at 0.8 mg/kg amounted to 94% under setting [1] and 100% under setting [2].
As to `CC1(CCOc2ccnc(C[S+]([O-])c3nc4ccccc4[nH]3)c2)OCC2(CO1)OCCO2` (centres unmarked) [Example 75, 2-(((4-(2-(8-methyl-1,4,7,9-tetraoxaspiro[4.5]dec-8-yl)ethoxy)pyridin-2-yl)methyl)sulfinyl)-1H-benzimidazole sodium salt], the inhibition in vivo at 0.8 mg/kg runs as follows: under setting [1], 75%; under setting [2], 85%.
For `Cc1c(OC2CCC3(CC2)OCC(C)(C)CO3)ccnc1C[S+]([O-])c1nc2ccccc2[nH]1` (centres unmarked) [Example 81, 2-(((4-((3,3-dimethyl-1,5-dioxaspiro[5.5]undec-9-yl)oxy)-3-methylpyridin-2-yl)methyl)sulfinyl)-1H-benzimidazole sodium salt] the same measures were 70% and 96%.
`[O-][S+](Cc1cc(OC2COC3(CCC3)OC2)ccn1)c1nc2ccccc2[nH]1` (centres unmarked) [Example 83, 2-(((4-(5,9-dioxaspiro[3.5]non-7-yloxy)pyridin-2-yl)methyl)sulfinyl)-1H-benzimidazole sodium salt]: the inhibition in vivo at 0.8 mg/kg by setting is: under setting [1], 94%; under setting [2], 71%.
Take `Cc1c(OCC2OCC3(CCC3)CO2)ccnc1C[S+]([O-])c1nc2ccccc2[nH]1` (centres unmarked) [Example 85, 2-(((4-(6,8-dioxaspiro[3.5]non-7-ylmethoxy)-3-methylpyridin-2-yl)methyl)sulfinyl)-1H-benzimidazole sodium salt]: the inhibition in vivo at 0.8 mg/kg under setting [1] is 86% and the inhibition in vivo at 0.8 mg/kg under setting [2] came to 100%.
`Cc1c(OCCC2OCC(C)(C)CO2)ccnc1C[S+]([O-])c1nc2ccccc2[nH]1` (centres unmarked) [Example 86, 2-(((4-(2-(5,5-dimethyl-1,3-dioxan-2-yl)ethoxy)-3-methylpyridin-2-yl)methyl)sulfinyl)-1H-benzimidazole sodium salt]: the inhibition in vivo at 0.8 mg/kg is, setting by setting: under setting [1], 75%; under setting [2], 100%.
For the compound `Cc1c(OCC2COCO2)ccnc1C[S+]([O-])c1nc2ccccc2[nH]1` (centres unmarked) [Example 87, 2-(((4-(1,3-dioxolan-4-ylmethoxy)-3-methylpyridin-2-yl)methyl)sulfinyl)-1H-benzimidazole sodium salt], the inhibition in vivo at 0.8 mg/kg runs as follows: under setting [1], 92%; under setting [2], 100%.
